Laboratory results taken from US20050090522A1 (priority 2001, published 2005).
Where two headings read alike, the source gives them in different places.

Tested on: HIV-1
Experiment: HIV-1 single-round infectious luciferase reporter virus (pseudotype) assay in HeLa CD4 CCR5 cells
Type: cell-based
Protocol: • Virus production—Human embryonic Kidney cell line, 293, propagated in Dulbecco's Modified Eagle Medium (Life Technologies, Gaithersburg, Md.) containing 10% fetal Bovine serum (FBS, Sigma, St. Louis, Mo.). • Virus infection—Human epithelial cell line, HeLa, expressing the HIV-1 receptors CD4 and CCR^5 was propagated in Dulbecco's Modified Eagle Medium (Life Technologies, Gaithersburg, Md.) containing 10% fetal Bovine serum (FBS, Sigma, St. Louis, Mo.) and supplemented with 0.2 mg/mL Geneticin (Life Technologies, Gaithersburg, Md.) and 0.4 mg/mL Zeocin (Invitrogen, Carlsbad, Calif.). […] Transfections were performed using lipofectAMINE PLUS reagent as described by the manufacturer (Life Technologies, Gaithersburg, Md.). Experiment • 1. Compound was added to HeLa CD4 CCR5 cells plated in 96 well plates at a cell density of 5×10^4 cells per well in 100 μl Dulbecco's Modified Eagle Medium containing 10% fetal Bovine serum at a concentration of […]. • 2. 100 μl of single-round infectious reporter virus in Dulbecco's Modified Eagle Medium was then added to the plated cells and compound at an approximate multiplicity of infection (MOI) of 0.01, resulting in a final volume of 200 μl per well and a final compound concentration of <10 μM. • 3. Samples were harvested 72 h after infection. • 4. Viral infection was monitored by measuring luciferase expression from viral DNA in the infected cells using a luciferase reporter gene assay kit (Roche Molecular Biochemicals, Indianapolis, Ind.). Infected cell supernatants were removed and 50 μl of Dulbecco's Modified Eagle Medium (without phenol red) and 50 μl of luciferase assay reagent reconstituted as described by the manufacturer (Roche Molecular Biochemicals, Indianapolis, Ind.) was added per well. Luciferase activity was then quantified by measuring luminescence using a Wallac microbeta scintillation counter. • 5. […] An EC50 provides a method for comparing the antiviral potency of the compounds of this invention. The effective concentration for fifty percent inhibition (EC50) was calculated with the Microsoft Excel Xlfit curve fitting software. For each compound, curves were generated from percent inhibition calculated at 10 different concentrations by using a four paramenter logistic model (model 205). Table 1 is the key for the data in Tables 2-4. Cytoxicity assays were conducted with the same HeLa using methodology well known in the art.
In Table 5, X2, X4 etc. indicates the point of attachment. […] The data at 10 μM was calculated in the following manner:
For compounds tested at concentrations less than 10 μM, the percent inhibition at 10 μM was determined by extrapolation using the XLfit curve fitting feature of the Microsoft Excel spreadsheet software. Curves were obtained from 10 data points (% inhibition determined at 10 concentrations of compound) by using a four parameter logistic model (XLfit model 205: y=A+((B−A)/(I+((C/x)^D))), where, A=minimum y, B=maximum y, C=logEC50, D=slope factor, and x and y are known data values. Extrapolations were performed with the A and B parameters unlocked. […]

[1] = Human immunodeficiency virus 1, HeLa-CD4/CCR5, read-out: EC50 Group from Table 1, Table 4, HeLa CD4 CCR5 cells, single-round luciferase reporter virus
[2] = Human immunodeficiency virus 1, HeLa-CD4/CCR5, read-out: EC50 Group from TABLE 1, HeLa CD4 CCR5 cells, single-round infectious luciferase reporter virus

Row | Compound | EC50 [1] [µM] | EC50 [2] [µM]
1 | CON(C)C(=O)c1cc(Cl)nc2c(C(=O)C(=O)N3CCN(C(=O)c4ccccc4)C[C@H]3C)c[nH]c12 [Example 58, 1-benzoyl-3-(R)-methyl-4-[(5-chloro-(7-(methoxymethylamino)carbonyl)-4-azaindol-3-yl)-oxoacetyl]piperazine] | < 1 | 
2 | C[C@@H]1CN(C(=O)c2ccccc2)CCN1C(=O)C(=O)c1c[nH]c2c(-c3ncc[nH]3)cc(Cl)nc12 [Example 60, 1-benzoyl-3-(R)-methyl-4-[(5-chloro-7-(imidazol-2-yl)-4-azaindol-3-yl)-oxoacetyl]piperazine] | < 1 | 
3 | Cc1c[nH]c(-c2cc(Cl)nc3c(C(=O)C(=O)N4CCN(C(=O)c5ccccc5)C[C@H]4C)c[nH]c23)n1 [Example 61, l-benzoyl-3-(R)-methyl-4-[(5-chloro-7-(4-methyl-imidazol-2-yl)-4-azaindol-3-yl)-oxoacetyl]piperazine] | < 1 | 
4 | Cc1nc(-c2cc(Cl)nc3c(C(=O)C(=O)N4CCN(C(=O)c5ccccc5)C[C@H]4C)c[nH]c23)[nH]c1C [Example 62, 1-benzoyl-3-(R)-methyl-4-[(5-chloro-7-(4,5-dimethyl-imidazol-2-yl)-4-azaindol-3-yl)-oxoacetyl]piperazine] | < 1 | 
5 | C[C@@H]1CN(C(=O)c2ccccc2)CCN1C(=O)C(=O)c1c[nH]c2c(-c3cnco3)cc(Cl)nc12 [Example 63, 1-benzoyl-3-(R)-methyl-4-[(5-chloro-7-(oxazol-5-yl)-4-azaindol-3-yl)-oxoacetyl]piperazine] | < 1 | 
6 | Cc1cc(-c2cc(Cl)nc3c(C(=O)C(=O)N4CCN(C(=O)c5ccccc5)C[C@H]4C)c[nH]c23)[nH]n1 [Example 64, 1-benzoyl-3-(R)-methyl-4-[(5-chloro-7-(3-methyl-pyrazol-5-yl)-4-azaindol-3-yl)-oxoacetyl]piperazine] | < 1 | 
7 | COc1ccc(-c2ccnc3c(C(=O)C(=O)N4CCN(C(=O)c5ccccc5)CC4)c[nH]c23)cc1 [Example 65, 1-(benzoyl)-4-[(7-(4-methoxy)-4-azaindol-3-yl)-oxoacetyl]piperazine] | < 1 | 
8 | COc1ccc(-c2ccnc3c(C(=O)C(=O)N4CCN(C(=O)c5ccccc5)C[C@@H]4C)c[nH]c23)cc1 [Example 66, 1-benzoyl-3-(S)-methyl-4-[(7-(4-methoxy)-4-azaindol-3-yl)-oxoacetyl]piperazine] | < 1 | 
9 | COc1ccc(-c2ccnc3c(C(=O)C(=O)N4CCN(C(=O)c5ccccc5)C[C@H]4C)c[nH]c23)cc1 [Example 67, 1-benzoyl-3-(R)-methyl-4-[(7-(4-methoxyphenyl)-4-azaindol-3-yl)oxoacetyl]piperazine] | < 1 | 
10 | COc1cc(-c2ncc(OC)c3c(C(=O)C(=O)N4CCN(C(=O)c5ccccc5)CC4)c[nH]c23)nc(OC)n1 [Example 68, 1-benzoyl-4-[(4-methoxy-7-(2,6-dimethoxy-pyrimidin-4-yl)-6-azaindol-3-yl)-oxoacetyl]piperazine] |  | < 1
11 | COc1ccc(-c2ncc(OC)c3c(C(=O)C(=O)N4CCN(C(=O)c5ccccc5)CC4)c[nH]c23)cn1 [Example 69, 1-benzoyl-4-[(4-methoxy-7-(6-methoxy-pyridin-3-yl)-6-azaindol-3-yl)-oxoacetyl]piperazine] |  | < 1
12 | CCN(CC)c1nc(-c2ncc(OC)c3c(C(=O)C(=O)N4CCN(C(=O)c5ccccc5)CC4)c[nH]c23)cs1 [Example 70, 1-benzoyl-4-[(4-methoxy-7-(2-diethylamino-thiazol-4-yl)-6-azaindol-3-yl)-oxoacetyl]piperazine] |  | < 1
13 | COc1cnc(-c2cnc(N(C)C)cn2)c2[nH]cc(C(=O)C(=O)N3CCN(C(=O)c4ccccc4)CC3)c12 [Example 72, 1-(benzoyl)-4-[(4-methoxy-7-(2-dimethylamino-pyrazin-5-yl)-6-azaindol-3-yl)-oxoacetyl]piperazine] |  | < 1
14 | COc1cnc(-c2cccc(N)n2)c2[nH]cc(C(=O)C(=O)N3CCN(C(=O)c4ccccc4)CC3)c12 [Example 75, 1-benzoyl-4-[(4-methoxy-7-(2-aminopyridin-6-yl)-6-azaindol-3-yl)-oxoacetyl]piperazine] |  | < 1
15 | COc1cnc(-c2cccc(C)n2)c2[nH]cc(C(=O)C(=O)N3CCN(C(=O)c4ccccc4)CC3)c12 [Example 76, 1-benzoyl-4-[(4-methoxy-7-(2-methyl-pyridin-6-yl)-6-azaindol-3-yl)-oxoacetyl]piperazine] |  | < 1
16 | COc1cccc(-c2ncc(OC)c3c(C(=O)C(=O)N4CCN(C(=O)c5ccccc5)CC4)c[nH]c23)n1 [Example 77, 1-benzoyl-4-[(4-methoxy-7-(2-methoxy-pyridin-6-yl)-6-azaindol-3-yl)-oxoacetyl]piperazine] |  | < 1
17 | CCNc1cnc(-c2ncc(OC)c3c(C(=O)C(=O)N4CCN(C(=O)c5ccccc5)CC4)c[nH]c23)cn1 [Example 79, 1-benzoyl-4-[(4-methoxy-7-(2-ethylamino-pyrazin-5-yl)-6-azaindol-3-yl)-oxoacetyl]piperazine] |  | < 1
18 | COc1cnc(-c2ccoc2)c2[nH]cc(C(=O)C(=O)N3CCN(C(=O)c4ccccc4)CC3)c12 [Example 81, 1-benzoyl-4-[(4-methoxy-7-(furan-3-yl)-6-azaindol-3-yl)-oxoacetyl]piperazine] |  | < 1
19 | COc1cnc(-c2cccs2)c2[nH]cc(C(=O)C(=O)N3CCN(C(=O)c4ccccc4)CC3)c12 [Example 82, 1-benzoyl-4-[(4-methoxy-7-(thiophen-2-yl)-6-azaindol-3-yl)-oxoacetyl]piperazine] |  | < 1
20 | COc1cnc(-c2ccsc2)c2[nH]cc(C(=O)C(=O)N3CCN(C(=O)c4ccccc4)CC3)c12 [Example 83, 1benzoyl-4-[(4-methoxy-7-(thiophen-3-yl)-6-azaindol-3-yl)-oxoacetyl]piperazine] |  | < 1
21 | COc1cnc(-c2ccc(C=O)s2)c2[nH]cc(C(=O)C(=O)N3CCN(C(=O)c4ccccc4)CC3)c12 [Example 84, 1-benzoyl-4-[(4-methoxy-7-(5-carbonyl-thiophen-2-yl)-6-azaindol-3-yl)-oxoacetyl]piperazine] |  | < 1
22 | COc1cnc(-c2ccc(C=O)o2)c2[nH]cc(C(=O)C(=O)N3CCN(C(=O)c4ccccc4)CC3)c12 [Example 85, 1-(benzoyl)-4-[(4-methoxy-7-(5-carbonyl-furan-2-yl)-6-azaindol-3-yl)-oxoacetyl]piperazine] |  | < 1
23 | Cc1csc(-c2ccnc3c(C(=O)C(=O)N4CCN(C(=O)c5ccccc5)C[C@H]4C)c[nH]c23)c1 [Example 86, 1-benzoyl-3-(R)-methyl-4-[(7-(4-methyl-thiophen-2-yl)-4-azaindol-3-yl)-oxoacetyl]piperazine] | < 1 | 
24 | COc1cnc(-c2ccc(C(=O)O)o2)c2[nH]cc(C(=O)C(=O)N3CCN(C(=O)c4ccccc4)CC3)c12 [Example 87, 1-benzoyl-4-[(4-methoxy-7-(2-hydroxycarbonyl-furan-5-yl)-6-azaindol-3-yl)-oxoacetyl]piperazine] |  | < 1
25 | CCc1ncc(-c2ncc(OC)c3c(C(=O)C(=O)N4CCN(C(=O)c5ccccc5)CC4)c[nH]c23)s1 [Example 88, 1-benzoyl-4-[(4-methoxy-7-(2-ethyl-thiazol-5-yl)-6-azaindol-3-yl)-oxoacetyl]piperazine] |  | < 1
26 | CC(C)Cc1ncc(-c2nccc3c(C(=O)C(=O)N4CCN(C(=O)c5ccccc5)CC4)c[nH]c23)s1 [Example 89, 1-benzoyl-4-[(7-(2-isobutyl-thiazol-5-yl)-6-azaindol-3-yl)-oxoacetyl]piperazine] |  | < 1
27 | COc1cnc(-c2cnc(CC(C)C)s2)c2[nH]cc(C(=O)C(=O)N3CCN(C(=O)c4ccccc4)CC3)c12 [Example 90, 1-benzoyl-4-[(4-methoxy-7-(2-isobutyl-thiazol-5-yl)-6-azaindol-3-yl)-oxoacetyl]piperazine] |  | < 1
28 | CCC(C)c1ncc(-c2ncc(OC)c3c(C(=O)C(=O)N4CCN(C(=O)c5ccccc5)CC4)c[nH]c23)s1 (stereo not shown) [Example 91, 1-benzoyl-4-[(4-methoxy-7-(2-(2-butyl)-thiazol-5-yl)-6-azaindol-3-yl)-oxoacetyl]piperazine] |  | < 1
